Test results reported in US20260138990A1, “TRICYCLIC FUSED IMIDAZOLE COMPOUNDS AS CD38 MODULATORS AND USES THEREOF” (AEOVIAN PHARMACEUTICALS, INC., priority 2023, published 2026).

Tests used:
[1] = target: T1, mouse CD38 (Mus musculus, UniProt P56528); assay: NAD+ cyclase activity assay with mouse recombinant CD38 protein (ε-NAD fluorescence); assay type: biochemical; conditions: 0.6 nM mouse CD38, substrate ε-NAD, 30 min preincubation, fluorescence 300/410 nm
T1 construct: purchased Bio-Techne GmbH 4947-AC
T1 sequence (P56528 1-304): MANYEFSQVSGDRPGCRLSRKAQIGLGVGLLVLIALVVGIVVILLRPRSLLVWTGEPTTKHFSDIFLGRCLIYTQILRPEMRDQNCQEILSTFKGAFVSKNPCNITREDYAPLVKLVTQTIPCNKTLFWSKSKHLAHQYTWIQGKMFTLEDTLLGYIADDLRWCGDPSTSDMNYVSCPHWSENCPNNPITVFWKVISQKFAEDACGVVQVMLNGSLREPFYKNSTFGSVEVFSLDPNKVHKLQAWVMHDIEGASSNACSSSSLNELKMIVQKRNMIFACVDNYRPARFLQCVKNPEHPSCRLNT
How it was run: (§1)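 Recombinant CD38 (0.6 nM mouse or 1.9 nM human) in 40 mM HEPES/NaOH pH 7.5, 250 mM sucrose, 0.01% Tween was preincubated with compound for 30 min at room temperature, then […] ε-NAD was added. Fluorescence (ex 300/em 410 nm) was read continuously. Slopes over the linear phase were normalised to enzyme and no-enzyme controls and fitted from 12-point, threefold dose-response curves.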

[2] = target: T2, human CD38 (Homo sapiens, UniProt P28907); assay: NAD+ cyclase activity assay with human recombinant CD38 protein (ε-NAD fluorescence); assay type: biochemical; conditions: 1.9 nM human CD38, substrate ε-NAD, 30 min preincubation, fluorescence 300/410 nm
T2 construct: purchased Bio-Techne GmbH AVI2404
T2 sequence (P28907 1-300): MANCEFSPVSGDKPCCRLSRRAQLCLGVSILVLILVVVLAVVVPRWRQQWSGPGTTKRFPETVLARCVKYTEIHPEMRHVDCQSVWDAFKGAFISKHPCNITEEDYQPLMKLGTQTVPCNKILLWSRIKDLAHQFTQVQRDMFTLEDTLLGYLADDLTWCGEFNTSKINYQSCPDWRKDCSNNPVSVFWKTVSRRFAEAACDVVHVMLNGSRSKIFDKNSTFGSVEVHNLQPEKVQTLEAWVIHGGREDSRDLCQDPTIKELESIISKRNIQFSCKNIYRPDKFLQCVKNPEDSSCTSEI
How it was run: as §1

Row | Compound | IC50 [1] [nM] | IC50 [2] [nM]
1 | COCCO[C@H]1CC[C@H](NC(=O)c2cc(F)c3c(c2F)-c2cncn2CCO3)CC1 [Compound 91A, 8,11-Difluoro-N-((1r,4r)-4-(2-methoxyethoxy)cyclohexyl)-5,6-dihydrobenzo[f]imidazo[1,5-d][1,4]oxazepine-10-carboxamide] | 1 to 10 | 30 to 100
2 | O=C(N[C@@H]1CCC(F)(F)C1)c1ccc2c(c1)-c1cncn1CCO2 [Compound 92A, (R)—N-(3,3-Difluorocyclopentyl)-5,6-dihydrobenzo[f]imidazo[1,5-d][1,4]oxazepine-10-carboxamide] | 1 to 10 | < 30
3 | O=C(N[C@H]1CCC(F)(F)C1)c1ccc2c(c1)-c1cncn1CCO2 [Compound 93A, (S)—N-(3,3-Difluorocyclopentyl)-5,6-dihydrobenzo[f]imidazo[1,5-d][1,4]oxazepine-10-carboxamide] | 1 to 10 | < 30
4 | COCCO[C@H]1CC[C@H](NC(=O)c2cc(Cl)c3c(c2)-c2cncn2CCO3)CC1 [Compound 94A, 8-Chloro-N-((1r,4r)-4-(2-methoxyethoxy)cyclohexyl)-5,6-dihydrobenzo[f]imidazo[1,5-d][1,4]oxazepine-10-carboxamide] | < 1 | < 30
5 | COCCO[C@H]1CC[C@H](NC(=O)c2cc3c(c(F)c2F)OCCn2cncc2-3)CC1 [Compound 95A, 8,9-Difluoro-N-((1r,4r)-4-(2-methoxyethoxy)cyclohexyl)-5,6-dihydrobenzo[f]imidazo[1,5-d][1,4]oxazepine-10-carboxamide] | 1 to 10 | < 30
6 | O=C(NC1CCCC(F)(F)C1)c1ccc2c(c1)-c1cncn1CCO2 (stereo not drawn) [Compound 96A, N-(3,3-Difluorocyclohexyl)-5,6-dihydrobenzo[f]imidazo[1,5-d][1,4]oxazepine-10-carboxamide] | 1 to 10 | < 30
7 | O=C(Nc1cnc2c(c1)OCCO2)c1cc(F)c2c(c1)-c1cncn1CCO2 [Compound 97A, N-(2,3-Dihydro-[1,4]dioxino[2,3-b]pyridin-7-yl)-8-fluoro-5,6-dihydrobenzo[f]imidazo[1,5-d][1,4]oxazepine-10-carboxamide] | < 1 | < 30
8 | O=C(N[C@H]1CC[C@H](CN2CC(F)(F)C2)CC1)c1ccc2c(c1)-c1cncn1CCO2 [Compound 105A, N-((1r,4r)-4-((3,3-Difluoroazetidin-1-yl)methyl)cyclohexyl)-5,6-dihydrobenzo[f]imidazo[1,5-d][1,4]oxazepine-10-carboxamide] | 1 to 10 | 30 to 100
9 | CS(=O)(=O)CCN[C@H]1CC[C@H](NC(=O)c2ccc3c(c2)-c2cncn2CCO3)CC1 [Compound 106A, N-((1r,4r)-4-((2-(Methylsulfonyl)ethyl)amino)cyclohexyl)-5,6-dihydrobenzo[f]imidazo[1,5-d][1,4]oxazepine-10-carboxamide] | 1 to 10 | 30 to 100
10 | O=C(N[C@H]1CC[C@H](N2CC(C(F)(F)F)C2)CC1)c1ccc2c(c1)-c1cncn1CCO2 [Compound 107A, N-((1r,4r)-4-(3-(Trifluoromethyl)azetidin-1-yl)cyclohexyl)-5,6-dihydrobenzo[f]imidazo[1,5-d][1,4]oxazepine-10-carboxamide] | 1 to 10 | 30 to 100
11 | O=C(N[C@@H]1CCC(F)(F)C1)c1cc(F)c2c(c1)-c1cncn1CCO2 [Compound 108A, (R)—N-(3,3-Difluorocyclopentyl)-8-fluoro-5,6-dihydrobenzo[f]imidazo[1,5-d][1,4]oxazepine-10-carboxamide] | < 1 | < 30
12 | O=C(N[C@H]1CC[C@H](NCCC(F)(F)F)CC1)c1ccc2c(c1)-c1cncn1CCO2 [Compound 110A, N-((1r,4r)-4-((3,3,3-Trifluoropropyl)amino)cyclohexyl)-5,6-dihydrobenzo[f]imidazo[1,5-d][1,4]oxazepine-10-carboxamide] | 1 to 10 | 30 to 100
13 | O=C(N[C@@H]1CCC(F)(F)C1)c1cc(Cl)c2c(c1)-c1cncn1CCO2 [Compound 112A, (R)-8-Chloro-N-(3,3-difluorocyclopentyl)-5,6-dihydrobenzo[f]imidazo[1,5-d][1,4]oxazepine-10-carboxamide] | < 1 | < 30
14 | O=C(N[C@H]1CC[C@H](N2CC(C(F)F)C2)CC1)c1ccc2c(c1)-c1cncn1CCO2 [Compound 113A, N-((1r,4r)-4-(3-(Difluoromethyl)azetidin-1-yl)cyclohexyl)-5,6-dihydrobenzo[f]imidazo[1,5-d][1,4]oxazepine-10-carboxamide] | 1 to 10 | < 30
15 | CC(C)(O)[C@H]1CC[C@H](NC(=O)c2cc(F)c3c(c2)-c2cncn2CCO3)CC1 [Compound 114A, 8-Fluoro-N-((1r,4r)-4-(2-hydroxypropan-2-yl)cyclohexyl)-5,6-dihydrobenzo[f]imidazo[1,5-d][1,4]oxazepine-10-carboxamide] | < 1 | < 30
16 | O=C(N[C@H]1CC[C@H](NCC(F)(F)F)CC1)c1cc(F)c2c(c1)-c1cncn1CCO2 [Compound 115A, 8-Fluoro-N-((1r,4r)-4-((2,2,2-trifluoroethyl)amino)cyclohexyl)-5,6-dihydrobenzo[f]imidazo[1,5-d][1,4]oxazepine-10-carboxamide] | < 1 | < 30

Results, then the compound that gave them:

Row | IC50 [1] [nM] | IC50 [2] [nM] | Compound
17 | > 100 | 100 to 1000 | O=C(N[C@H]1CC[C@@H](OCCC(F)(F)F)CC1)c1ccc2c(c1)-c1cncn1CCO2 [Compound 89A, N-((1s,4s)-4-(3,3,3-Trifluoropropoxy)cyclohexyl)-5,6-dihydrobenzo[f]imidazo[1,5-d][1,4]oxazepine-10-carboxamide]
18 | < 1 | < 30 | O=C(N[C@H]1CC[C@H](OCCC(F)(F)F)CC1)c1ccc2c(c1)-c1cncn1CCO2 [Compound 90A, N-((1r,4r)-4-(3,3,3-Trifluoropropoxy)cyclohexyl)-5,6-dihydrobenzo[f]imidazo[1,5-d][1,4]oxazepine-10-carboxamide]
19 | 1 to 10 | < 30 | CN1CCOc2cc(NC(=O)c3ccc4c(c3)-c3cncn3CCO4)cnc21 [Compound 98A, N-(4-Methyl-3,4-dihydro-2H-pyrido[3,2-b][1,4]oxazin-7-yl)-5,6-dihydrobenzo[f]imidazo[1,5-d][1,4]oxazepine-10-carboxamide]
20 | 10 to 100 | < 30 | O=C(Nc1cnc(N2CC(F)(F)C2)nc1)c1ccc2c(c1)-c1cncn1CCO2 [Compound 99A, N-(2-(3,3-Difluoroazetidin-1-yl)pyrimidin-5-yl)-5,6-dihydrobenzo[f]imidazo[1,5-d][1,4]oxazepine-10-carboxamide]
21 | 1 to 10 | < 30 | O=C(Nc1cnc(NCC(F)(F)F)nc1)c1ccc2c(c1)-c1cncn1CCO2 [Compound 100A, N-(2-((2,2,2-Trifluoroethyl)amino)pyrimidin-5-yl)-5,6-dihydrobenzo[f]imidazo[1,5-d][1,4]oxazepine-10-carboxamide]
22 | < 1 | < 30 | CN1CCOc2ncc(NC(=O)c3ccc4c(c3)-c3cncn3CCO4)cc21 [Compound 101A, N-(1-Methyl-2,3-dihydro-1H-pyrido[2,3-b][1,4]oxazin-7-yl)-5,6-dihydrobenzo[f]imidazo[1,5-d][1,4]oxazepine-10-carboxamide]
23 | 1 to 10 | < 30 | O=C(Nc1cnc(OCCCF)nc1)c1ccc2c(c1)-c1cncn1CCO2 [Compound 102A, N-(2-(3-Fluoropropoxy)pyrimidin-5-yl)-5,6-dihydrobenzo[f]imidazo[1,5-d][1,4]oxazepine-10-carboxamide]
24 | 1 to 10 | < 30 | O=C(Nc1cnc(OCCC(F)F)nc1)c1ccc2c(c1)-c1cncn1CCO2 [Compound 103A, N-(2-(3,3-Difluoropropoxy)pyrimidin-5-yl)-5,6-dihydrobenzo[f]imidazo[1,5-d][1,4]oxazepine-10-carboxamide]
25 | 1 to 10 | < 30 | O=C(Nc1cnc(OCCC(F)(F)F)nc1)c1ccc2c(c1)-c1cncn1CCO2 [Compound 104A, N-(2-(3,3,3-Trifluoropropoxy)pyrimidin-5-yl)-5,6-dihydrobenzo[f]imidazo[1,5-d][1,4]oxazepine-10-carboxamide]
26 | 1 to 10 | < 30 | O=C(Nc1cnc(OCC(F)(F)F)nc1)c1ccc2c(c1)-c1cncn1CCO2 [Compound 109A, N-(2-(2,2,2-Trifluoroethoxy)pyrimidin-5-yl)-5,6-dihydrobenzo[f]imidazo[1,5-d][1,4]oxazepine-10-carboxamide]
27 | > 100 | 100 to 1000 | O=C(N[C@H]1CC[C@@H](NCCC(F)(F)F)CC1)c1ccc2c(c1)-c1cncn1CCO2 [Compound 111A, N-((1s,4s)-4-((3,3,3-Trifluoropropyl)amino)cyclohexyl)-5,6-dihydrobenzo[f]imidazo[1,5-d][1,4]oxazepine-10-carboxamide]
